Literature values as cited in patent US9198430B2, “Anti-parasitic composition comprising a macrocyclic lactone and levamisole and method of treatment of parasitic infestation” (BAYER NEW ZEALAND LIMITED, priority 2011, dated 2015).
Like-named read-outs stand apart in the source and are kept apart here.

Conditions: unlabelled doramectin 0.2 mg/kg bodyweight

**Q.** Which “Residues of Doramectin, Fat” value (Day 21) does the source give for `CO[C@H]1C[C@H](O[C@H]2[C@H](C)O[C@@H](O[C@@H]3/C(C)=C/C[C@@H]4C[C@@H](C[C@]5(C=C[C@H](C)[C@@H](C6CCCCC6)O5)O4)OC(=O)[C@@H]4C=C(C)[C@@H](O)[C@H]5OC/C(=C\C=C\[C@@H]3C)[C@]54O)C[C@@H]2OC)O[C@@H](C)[C@@H]1O` [doramectin, Doramectin] here?
**A.** 182 µg/kg

**Q.** And the “Residues of Doramectin, Injection (site)” value (Day 21)?
**A.** 1900 µg/kg

**Q.** What about the “Residues of Doramectin, Kidney” value (Day 21) of the same compound?
**A.** 11 µg/kg

**Q.** What about the “Residues of Doramectin, Liver” value (Day 21) of the same compound?
**A.** 107 µg/kg

**Q.** And the “Residues of Doramectin, Muscle” value (Day 21)?
**A.** <7 µg/kg

**Q.** And the “Residues of Doramectin, Fat” value (Day 28)?
**A.** 94 µg/kg

**Q.** And the “Residues of Doramectin, Injection (site)” value (Day 28)?
**A.** 380 µg/kg

**Q.** What about the “Residues of Doramectin, Kidney” value (Day 28) of the same compound?
**A.** 8.8 µg/kg

**Q.** And the “Residues of Doramectin, Liver” value (Day 28)?
**A.** 66 µg/kg

**Q.** What about the “Residues of Doramectin, Muscle” value (Day 28) of the same compound?
**A.** <4 µg/kg

**Q.** And the “Residues of Doramectin, Fat” value (Day 35)?
**A.** 57 µg/kg

**Q.** What about the “Residues of Doramectin, Injection (site)” value (Day 35) of the same compound?
**A.** 930 µg/kg

**Q.** What about the “Residues of Doramectin, Kidney” value (Day 35) of the same compound?
**A.** <4.5 µg/kg

**Q.** And the “Residues of Doramectin, Liver” value (Day 35)?
**A.** 29 µg/kg

**Q.** And the “Residues of Doramectin, Muscle” value (Day 35)?
**A.** <3 µg/kg
